Earlier results, collected in publication PMC4059071 (Angewandte Chemie (International ed. in English), 2013).

Test system: Akt
Details: ref [13]

Cc1n[nH]c2ccc(-c3cncc(OC[C@@H](N)Cc4c[nH]c5ccccc45)c3)cc12 [A-443654]
effect on Akt phosphorylation (Thr308 and Ser473 of Akt): paradoxical hyperphosphorylation of Akt at both Thr308 and Ser473
effect on Akt protein activity after inhibitor dissociation: protein reactivation after inhibitor dissociation
